Like-named read-outs stand apart in the source and are kept apart here.
Tests used:
[1] = in water, at 25°C; cited from earlier work
[2] = tested on: tyrosinase; assay: Tyrosinase inhibition rate (L-Dopa substrate, absorbance at 475 nm); format: biochemical; details: combination of both amounts, negative = activation rate
Method: (§1) Calculation: To-be-tested sample•OH scavenging rate (%)=[(A3-A3')-(A2-A0)]/(A1-A2)×100% • V. Detection methods of adenosine, mannitol, total amino acid content and water were conducted according to the detection method under the fermented Cordyceps sinensis. mycelia powder item in accordance with National Drug Standards. • VI. Detection method of tyrosinase inhibition rate • 1. Preparation of a solution: • (1) Preparation of a PBS: 3.4022 g of potassium dihydrogen phosphate and 5.7055 g of potassium phosphate dibasic trihydrate were respectively weighed and then dissolved with an appropriate amount of distilled water; the volume was fixed in a 1000 mL volumetric flask; the solution was shaken up to obtain the PBS having a pH value of 6.81 and a concentration of 0.05 mol·L-1, and the PBS was kept in a dark place at 4°C in a refrigerator. • (2) Preparation of an L-Dopa solution: 0.0395 g of L-Dopa was precisely weighed and dissolved with the prepared PBS; the solution was transferred into a 100 mL volumetric flask; the volume was fixed; the solution was shaken up and subjected to ultrasonic treatment to obtain the L-Dopa solution of 2 mmol·L-1. The solution was used when prepared. • (3) Preparation of a TYR ([…]) solution: 25 KU of the TYR was totally dissolved with a small amount of PBS; the solution was repeatedly washed for several times; the washing liquid was transferred into the […] volumetric flask; the volume was fixed with the PBS; the liquid was shaken up to obtain a TYR solution of 250 U·mL-1; then the mother solution was diluted to 125 U·mL-1; and the solution was preserved at -20°C in the refrigerator for later use. • 2. Preparation of samples: 250 mg/ml of an erythritol mother solution: 2.5 g of erythritol was weighed, and 10 ml of purified water was added; 250 mg/ml of a mannitol mother solution: 7.5 g of mannitol was weighed, 30 ml of purified water was added, the mixture was heated and dissolved; and the solution was diluted into the needed concentration according to each reaction system and then added into the detection system. • 3. Determination of the sample on TYR inhibitory activity
The reaction system was shown as Table 4.2. […] A calculation formula of the inhibition rate was as follows: when the calculated result was negative, the absolute value of the negative was an activation rate.
Inhibition rate = ((A1−A2)−(A3−A4))/(A1 −A2) × 100% [formula] • A1: absorbance of a reaction solution with TYR instead of the sample determined at 475 nm; • A2: absorbance of a reaction solution without the sample nor the TYR determined at 475 nm; • A3: absorbance of a reaction solution with both the sample and the TYR determined at 475 nm; • A4: absorbance of a reaction solution with the sample instead of the TYR determined at 475 nm.

[3] = cited from earlier work
[4] = Hydroxyl radical scavenging rate (Fenton colorimetric method); format: biochemical
Description: IV. Detection of hydroxyl radical scavenging rate (Fenton colorimetric method)
H2O2/Fe^2+ produces a hydroxyl radical through a Fenton reaction, Fe^2+ is oxidized into Fe^3+, and red phenanthroline-Fe^2+ is oxidized into colorless phenanthroline-Fe^3+, so that the maximum absorption peak of the phenanthroline-Fe^2+ disappears at 536 nm. The absorbance change at 530-540 nm may be determined by a spectrophotometer. Thus, content change of the hydroxyl radical can be calculated, that is, the hydroxyl radical scavenging rate or scavenging capacity of the sample can be calculated.
• 1. 0.2 g of mycelia powder was weighed; 2 mL of purified water was added; the mycelia powder and the water were uniformly mixed; the mixture was placed at a room temperature for standing for 4 h; the solution was centrifuged at 10000 rpm for 10 min; and the supernatant was taken for later use. • 2. Other samples served as reference solutions.
The spectrophotometer was started for preheating for 30 min; the wavelength was adjusted to 536 nm; and the purified water was subjected to zero setting.
A blank tube, an undamaged tube, a damaged tube, a control tube and a determination tube were set according to the following table; the solutions were added in sequence; and the solutions were uniformly mixed and placed in a water bath at 37°C for 1 h.
as §1

[5] = cited from earlier work; remark: listed apart in the source
[6] = Erythritol 0.75 mg (3.75 mg/ml), Mannitol 1.25 mg (6.25 mg/ml)
[7] = Erythritol 1.25 mg (6.25 mg/ml), Mannitol 1.25 mg (6.25 mg/ml)
[8] = Erythritol 1.75 mg (8.75 mg/ml), Mannitol 2.5 mg (12.5 mg/ml)
[9] = Erythritol 0.75 mg (3.75 mg/ml), Mannitol 2.5 mg (12.5 mg/ml), combination of both amounts
[10] = Erythritol 1.5 mg (7.5 mg/ml), Mannitol 2.5 mg (12.5 mg/ml), combination of both amounts
[11] = Erythritol 1.75 mg (8.75 mg/ml), Mannitol 2.5 mg (12.5 mg/ml), combination of both amounts
[12] = Erythritol 2 mg (10 mg/ml), Mannitol 2.5 mg (12.5 mg/ml), combination of both amounts
[13] = Erythritol 2.5 mg (12.5 mg/ml), Mannitol 2.5 mg (12.5 mg/ml), combination of both amounts
[14] = Erythritol 12.5 mg (6.25 mg/ml), Adenosine 0.15 ml (0.75 mg/ml), combination of both amounts
[15] = Erythritol 12.5 mg (6.25 mg/ml), Adenosine 0.15 ml (2.5 mg/ml), combination of both amounts
[16] = EGT 0.4 ml (0.02 mg/ml), Adenosine 0.4 ml (0.02 mg/ml), combination 0.2 ml (0.02 mg/ml) + 0.2 ml (0.02 mg/ml)

SMILES | solubility [1] [%] | Tyrosinase inhibition rate (%) [2, 6] [%] | Tyrosinase inhibition rate (%) [2, 7] [%] | Tyrosinase inhibition rate (%) [2, 8] [%] | intestinal tolerance ([3]; children aged 4-6 years, beverages containing 15 g) | intestinal tolerance ([3]; healthy volunteers aged 18-24 years, 20-35 g in a liquid form) | intestinal tolerance ([3]; healthy volunteers aged 18-24 years, intake of 50 g) | OH clearance rate (%) [4, 9] [%] | OH clearance rate (%) [4, 10] [%] | OH clearance rate (%) [4, 11] [%] | OH clearance rate (%) [4, 12] [%] | OH clearance rate (%) [4, 13] [%] | OH clearance rate (%) [4, 14] [%] | OH clearance rate (%) [4, 15] [%] | absorbed in small intestine via passive diffusion ([5]; after ingestion by a human body) | absorbed erythritol oxidized into erythrose in blood ([5]; human body, share of the absorbed amount) | OH clearance rate (%) [4, 16] [%] | OH clearance rate (%) ([4]; EGT 0.4 ml (0.05 mg/ml), Erythritol 0.4 ml (0.05 mg/ml), combination 0.2 ml (0.05 mg/ml) + 0.2 ml (0.05 mg/ml))
OCC(O)C(O)CO (centres unmarked) [Erythritol, 1,2,3,4-butanetetraol] | 37 | -1.06 | 1.71 | 6.39 | the diarrhea and/or a severe intestinal symptom is not observed | good intestinal tolerance without any adverse symptom | symptoms such as diarrhea and nausea were observed | 5.14 | 2.44 | 11.76 | 20.15 | 11.45 | -8.17 | -5.8 | 80-90% | 5-10% |  | 
OC[C@@H](O)[C@@H](O)[C@H](O)[C@H](O)CO [Mannitol, D-mannitol] |  | 3.62 | 2.51 | 2.51 |  |  |  | 17.91 | 7.48 | 7.48 | 7.48 | 7.48 |  |  |  |  |  | 
Nc1ncnc2c1ncn2[C@@H]1O[C@H](CO)[C@@H](O)[C@H]1O [Adenosine, adenosine] |  |  |  |  |  |  |  |  |  |  |  |  | 10.57 | 7.17 |  |  | 0.00 | 
C[N+](C)(C)[C@@H](Cc1c[nH]c(=S)[nH]1)C(=O)[O-] [EGT, Ergothioneine] |  |  |  |  |  |  |  |  |  |  |  |  |  |  |  |  | -5.70 | 2.08
